According to ChEMBL document CHEMBL3871306, “Design and synthesis of novel N-sulfonyl-2-indoles that behave as 5-HT6 receptor ligands with significant selectivity for D3 over D2 receptors” (Bioorg Med Chem, 2017):

What was measured:
[1] = molecular target: 5-hydroxytryptamine receptor 6 (Homo sapiens, UniProt P50406); experiment: Displacement of [3H]-LSD from human 5-HT6R expressed in CHO cell membranes by radioligand binding assay
D(2) dopamine receptor [2] = molecular target: T1, D(2) dopamine receptor (Homo sapiens, UniProt P14416); experiment: Displacement of [3H]-methyl-spiperone from human dopamine D2L receptor expressed in HEK293 cell membranes after 1 hr by radioligand binding assay
T1 sequence (P14416 whole entry): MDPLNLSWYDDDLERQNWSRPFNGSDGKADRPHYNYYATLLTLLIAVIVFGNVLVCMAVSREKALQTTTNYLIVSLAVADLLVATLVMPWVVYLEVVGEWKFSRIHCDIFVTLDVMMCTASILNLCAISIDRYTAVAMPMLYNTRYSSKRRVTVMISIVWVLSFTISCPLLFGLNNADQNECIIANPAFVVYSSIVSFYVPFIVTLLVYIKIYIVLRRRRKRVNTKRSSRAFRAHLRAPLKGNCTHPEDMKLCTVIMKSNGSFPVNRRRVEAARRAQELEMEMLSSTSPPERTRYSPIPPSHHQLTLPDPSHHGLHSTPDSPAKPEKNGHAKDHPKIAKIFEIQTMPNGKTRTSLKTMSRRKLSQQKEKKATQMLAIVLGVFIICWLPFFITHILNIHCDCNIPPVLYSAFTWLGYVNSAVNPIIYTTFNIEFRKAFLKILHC

D(3) dopamine receptor = D(3) dopamine receptor (Homo sapiens, UniProt P35462); experiment: Displacement of [3H]-methyl-spiperone from human dopamine D3 receptor expressed in CHO cell membranes after 1 hr by liquid scintillation counting
D(3) dopamine receptor, sequence (P35462 whole entry): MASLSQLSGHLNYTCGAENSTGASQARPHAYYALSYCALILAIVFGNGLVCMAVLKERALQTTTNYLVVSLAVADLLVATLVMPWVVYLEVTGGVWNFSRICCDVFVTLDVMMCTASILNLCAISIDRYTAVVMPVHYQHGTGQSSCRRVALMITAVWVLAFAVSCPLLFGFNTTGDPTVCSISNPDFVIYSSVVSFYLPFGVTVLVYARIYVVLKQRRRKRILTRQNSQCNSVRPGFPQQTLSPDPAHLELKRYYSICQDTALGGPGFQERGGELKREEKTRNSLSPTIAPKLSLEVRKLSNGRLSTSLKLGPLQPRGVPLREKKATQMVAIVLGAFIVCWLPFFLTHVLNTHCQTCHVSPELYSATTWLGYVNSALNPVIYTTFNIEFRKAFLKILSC

D(2) dopamine receptor [3] = molecular target: T1, D(2) dopamine receptor; experiment: Displacement of [3H]-methyl-spiperone from human dopamine D2L receptor expressed in HEK293 cell membranes at […] after 1 hr by radioligand binding assay

5-hydroxytryptamine receptor 6, sequence (P50406 whole entry): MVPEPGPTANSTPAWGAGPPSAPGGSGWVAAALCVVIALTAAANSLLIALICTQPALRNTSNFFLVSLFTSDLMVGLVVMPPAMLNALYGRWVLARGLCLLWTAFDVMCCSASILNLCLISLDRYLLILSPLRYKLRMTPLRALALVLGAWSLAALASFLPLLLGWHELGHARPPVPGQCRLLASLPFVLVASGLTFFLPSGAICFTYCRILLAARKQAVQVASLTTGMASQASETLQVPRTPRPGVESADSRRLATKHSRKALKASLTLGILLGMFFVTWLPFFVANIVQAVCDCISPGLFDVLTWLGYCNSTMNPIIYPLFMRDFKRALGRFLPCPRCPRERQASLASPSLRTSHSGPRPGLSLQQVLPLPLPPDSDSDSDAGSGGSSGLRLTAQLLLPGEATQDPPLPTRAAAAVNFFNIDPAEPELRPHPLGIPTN

For CN[C@@H]1c2ccc3c(ccn3S(=O)(=O)c3ccccc3)c2[C@@H]1CCO, the Ki [1] was 25.1 nM, the Ki (D(2) dopamine receptor [2]) was > 10000 nM and the Ki (D(3) dopamine receptor) was > 10000 nM.

CC(=O)Nc1ccc(CCN(C)CC2Cc3ccc4c(ccn4S(=O)(=O)c4ccccc4)c32)cc1 (centres undefined) gave a Ki [1] of 79.4 nM, a Ki (D(2) dopamine receptor [2]) of 251 nM and a Ki (D(3) dopamine receptor) of 501 nM.

CNCC1Cc2ccc3c(ccn3S(=O)(=O)c3ccccc3)c21 (centres undefined) was tested, and the Ki [1] was 1.58 nM, the Ki (D(2) dopamine receptor [2]) was 2000 nM and the Ki (D(3) dopamine receptor) was 1260 nM.

In the case of O=S(=O)(c1ccccc1)n1ccc2cc3c(cc21)[C@H]1CCNCC[C@@H]31, the Ki [1] is reported as 158 nM, the Ki (D(2) dopamine receptor [2]) is reported as > 10000 nM and the Ki (D(3) dopamine receptor) is reported as 3160 nM.

Work on CNCC1Cc2ccc3c(ccn3S(=O)(=O)c3cccc4ccccc34)c21 (centres undefined) yielded a Ki [1] of 1 nM, a Ki (D(2) dopamine receptor [2]) of 1000 nM and a Ki (D(3) dopamine receptor) of 251 nM.

In the case of CNCC1Cc2cc3ccn(S(=O)(=O)c4cccc5ccccc45)c3cc21 (centres undefined), the Ki [1] is reported as 1 nM, the Ki (D(2) dopamine receptor [2]) is reported as 2510 nM and the Ki (D(3) dopamine receptor) is reported as 794 nM.

Work on O=S(=O)(c1ccccc1)n1ccc2c3c(ccc21)[C@H]1CCNCC[C@@H]31 (relative stereo) yielded a Ki [1] of 50.1 nM, a Ki (D(2) dopamine receptor [2]) of 794 nM and a Ki (D(3) dopamine receptor) of 1000 nM.

With CN[C@@H]1c2cc3ccn(S(=O)(=O)c4ccccc4)c3cc2[C@H]1CCO (relative stereo) the Ki [1] was 3.98 nM, the Ki (D(2) dopamine receptor [2]) was 15800 nM and the Ki (D(3) dopamine receptor) was 2000 nM.

For CN[C@H]1c2c(ccc3c2ccn3S(=O)(=O)c2ccccc2)[C@H]1CCO (relative stereo), the Ki [1] was 7.94 nM, the Ki (D(2) dopamine receptor [2]) was > 10000 nM and the Ki (D(3) dopamine receptor) was > 10000 nM.

In the case of CN(C)[C@H]1c2cc3ccn(S(=O)(=O)c4ccccc4)c3cc2[C@H]1CCO (relative stereo), the Ki [1] is reported as 39.8 nM, the Ki (D(2) dopamine receptor [2]) is reported as > 10000 nM and the Ki (D(3) dopamine receptor) is reported as 398 nM.

For CN(C)[C@H]1c2cc3c(ccn3S(=O)(=O)c3ccccc3)cc2[C@@H]1CCO (relative stereo), the Ki [1] was 316 nM, the Ki (D(3) dopamine receptor) was 126 nM and the inhibition (D(2) dopamine receptor [3]) was 19%.

CN(C)[C@@H]1c2cc3ccn(S(=O)(=O)c4ccccc4)c3cc2[C@H]1CCO (relative stereo) showed a Ki [1] of 12.6 nM, a Ki (D(3) dopamine receptor) of 1260 nM and an inhibition (D(2) dopamine receptor [3]) of 22%.

Work on CN(C)[C@@H]1c2cc3c(ccn3S(=O)(=O)c3ccccc3)cc2[C@@H]1CCO (relative stereo) yielded a Ki [1] of 316 nM, a Ki (D(3) dopamine receptor) of 631 nM and an inhibition (D(2) dopamine receptor [3]) of 20%.

For CN[C@H]1c2cc3ccn(S(=O)(=O)c4ccccc4)c3cc2[C@H]1CCO (relative stereo), the Ki [1] was 10 nM, the Ki (D(3) dopamine receptor) was 1260 nM and the inhibition (D(2) dopamine receptor [3]) was 30%.

CN[C@H]1c2cc3c(ccn3S(=O)(=O)c3ccccc3)cc2[C@@H]1CCO (relative stereo) gave a Ki [1] of 158 nM, a Ki (D(2) dopamine receptor [2]) of 6310 nM and a Ki (D(3) dopamine receptor) of 251 nM.

CN[C@H]1c2c(ccc3c2ccn3S(=O)(=O)c2ccccc2)[C@@H]1CCO (relative stereo) was tested, and the Ki [1] was 200 nM, the Ki (D(2) dopamine receptor [2]) was 15800 nM and the Ki (D(3) dopamine receptor) was 1260 nM.

In the case of CN[C@@H]1c2cc3c(ccn3S(=O)(=O)c3ccccc3)cc2[C@@H]1CCO (relative stereo), the Ki [1] is reported as 126 nM, the Ki (D(2) dopamine receptor [2]) is reported as > 10000 nM and the Ki (D(3) dopamine receptor) is reported as 1000 nM.

With CN[C@H]1c2ccc3c(ccn3S(=O)(=O)c3ccccc3)c2[C@@H]1CCO (relative stereo) the Ki [1] was 158 nM, the Ki (D(2) dopamine receptor [2]) was > 10000 nM and the Ki (D(3) dopamine receptor) was 1260 nM.
